Laboratory results taken from publication PMC7734590, “Identification of a Selective RelA Inhibitor Based on DSE-FRET Screening Methods” (International Journal of Molecular Sciences, 2020).
Read-outs that look alike come from different tables or passages of the source.

How the values were obtained:
cRel = molecular target: T1, cRel (Homo sapiens, UniProt Q04864); assay: DSE-FRET cRel–DNA binding inhibition; assay type: biochemical
T1 construct: GST; made in house
T1 sequence (Q04864 1-619): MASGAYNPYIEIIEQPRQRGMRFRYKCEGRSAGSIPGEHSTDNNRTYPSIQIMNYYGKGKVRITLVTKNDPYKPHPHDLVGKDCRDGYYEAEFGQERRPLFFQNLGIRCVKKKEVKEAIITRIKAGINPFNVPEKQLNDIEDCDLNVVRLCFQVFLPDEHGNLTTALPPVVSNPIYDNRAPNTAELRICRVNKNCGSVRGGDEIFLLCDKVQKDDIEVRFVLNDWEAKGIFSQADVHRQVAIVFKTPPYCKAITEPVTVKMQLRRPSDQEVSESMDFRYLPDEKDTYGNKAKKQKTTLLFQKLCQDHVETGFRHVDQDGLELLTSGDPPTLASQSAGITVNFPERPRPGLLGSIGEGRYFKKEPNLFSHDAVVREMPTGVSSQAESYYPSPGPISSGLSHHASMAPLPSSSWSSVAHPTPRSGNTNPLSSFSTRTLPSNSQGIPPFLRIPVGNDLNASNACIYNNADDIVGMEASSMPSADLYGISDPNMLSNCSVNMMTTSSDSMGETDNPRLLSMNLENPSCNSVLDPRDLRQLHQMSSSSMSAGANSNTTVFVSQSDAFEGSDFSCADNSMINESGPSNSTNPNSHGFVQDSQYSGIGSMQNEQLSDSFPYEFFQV

GST–RelA = GST–RelA (Homo sapiens, UniProt Q04206); assay: SPR analysis with immobilized GST–RelA; assay type: binding; details: for Rmax / Kd: GST–RelA; for Kd: read-out: dissociation constant (Kd)
Chain of GST–RelA (Q04206 19-306 limits assumed): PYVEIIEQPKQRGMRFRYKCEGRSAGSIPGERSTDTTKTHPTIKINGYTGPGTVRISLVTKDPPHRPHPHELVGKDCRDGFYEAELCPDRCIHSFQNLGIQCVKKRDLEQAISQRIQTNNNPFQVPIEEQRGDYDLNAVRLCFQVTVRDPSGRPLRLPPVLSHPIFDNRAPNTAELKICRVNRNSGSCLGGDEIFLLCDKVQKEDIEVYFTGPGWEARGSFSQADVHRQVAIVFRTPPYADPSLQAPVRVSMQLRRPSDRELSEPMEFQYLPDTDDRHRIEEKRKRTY
Experimental: SPR biosensor measurements were performed at 25 °C using a Biacore T100 instrument (GE Healthcare, Chicago, IL, USA). […] Next, 4 µg/mL GST–RelA or 5 µg/mL GST (GE Healthcare) was flowed through the channel (5 μL/min, for 180 s) and captured on the sensor chip. […] Dissociation constants were computed by fitting to a 1:1 interaction model using Biacore (GE Healthcare). Stoichiometry was calculated based on the theoretical Rmax value, where the theoretical Rmax = MWA/MWL RL SM (A, analyte; L, ligand; RL, immobilization level of ligand RU; SM, stoichiometry).

RelA = RelA (Homo sapiens, UniProt Q04206); assay: EMSA with recombinant RelA; assay type: biochemical
Chain of RelA (Q04206 19-306 limits assumed): as above

p52 = molecular target: T2, p52 (Homo sapiens, UniProt Q00653); assay: EMSA with recombinant p52; assay type: biochemical
T2 sequence (Q00653 1-454 limits assumed): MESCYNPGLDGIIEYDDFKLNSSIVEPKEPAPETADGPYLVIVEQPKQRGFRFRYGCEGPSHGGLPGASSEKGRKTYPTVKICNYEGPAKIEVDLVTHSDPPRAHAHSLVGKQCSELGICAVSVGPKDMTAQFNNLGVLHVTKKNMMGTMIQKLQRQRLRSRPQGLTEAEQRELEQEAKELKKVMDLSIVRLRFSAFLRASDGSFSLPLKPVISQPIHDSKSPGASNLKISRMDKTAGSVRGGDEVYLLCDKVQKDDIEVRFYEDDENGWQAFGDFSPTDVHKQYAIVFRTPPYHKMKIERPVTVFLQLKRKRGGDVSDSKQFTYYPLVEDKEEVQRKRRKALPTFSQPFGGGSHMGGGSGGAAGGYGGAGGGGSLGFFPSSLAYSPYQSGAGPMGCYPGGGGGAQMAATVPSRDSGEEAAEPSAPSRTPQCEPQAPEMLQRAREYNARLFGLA

IC50 (cRel): > 100 µM
Rmax (GST–RelA; 0.625–20 µM A55): 7.3 RU
Kd (GST–RelA; 0.625–20 µM A55): 2.87 µM
Rmax (GST–RelA; 3.125–100 µM A55): 4.7 RU
Kd (GST–RelA; 3.125–100 µM A55): 13 µM
Rmax GST-RelA (GST–RelA; Run 1, 100 uM - […], theoretical Rmax 4.5): 4.7 RU
Rmax GST-RelA (GST–RelA; Run 2, 20 uM - […], theoretical Rmax 5.0): 7.3 RU
SMILES: Cc1cc(O)n(CC(=O)O)c(=O)c1C(N)=O [A55, 2-(3-carbamoyl-6-hydroxy-4-methyl-2-oxopyridin-1(2H)-yl) acetic acid]
EMSA inhibition of RelA–DNA binding (RelA): selectively inhibited the RelA–DNA binding
EMSA inhibition of p52–DNA binding (p52): selectively inhibited the RelA–DNA binding
